#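 Five concentrations, 48 hours, 96-well plates. GI50 marks 50% less growth. TGI is the concentration that stops growth completely.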
# Experiments:
# Experiment in all cases: DTP human tumour cell line panel, 48 h
# 786-0 renal = system: 786-0 renal
# A498 renal = system: A498 renal
# A549 NSCLC = system: A549 NSCLC
# ACHN renal = system: ACHN renal
# BT-549 breast = system: BT-549 breast
# CAKI-1 renal = system: CAKI-1 renal
# CCRF-CEM leukemia = system: CCRF-CEM leukemia
# COLO 205 colon = system: COLO 205 colon
# DU-145 prostate = system: DU-145 prostate
# EKVX NSCLC = system: EKVX NSCLC
# HCC-2998 colon = system: HCC-2998 colon
# HCT-116 colon = system: HCT-116 colon
# HCT-15 colon = system: HCT-15 colon
# HL-60(TB) leukemia = system: HL-60(TB) leukemia
# HOP-62 NSCLC = system: HOP-62 NSCLC
# HOP-92 NSCLC = system: HOP-92 NSCLC
# HS 578T breast = system: HS 578T breast
# HT29 colon = system: HT29 colon
# IGROV1 ovarian = system: IGROV1 ovarian
# K-562 leukemia = system: K-562 leukemia
# KM12 colon = system: KM12 colon
# LOX IMVI melanoma = system: LOX IMVI melanoma
# M14 melanoma = system: M14 melanoma
# MALME-3M melanoma = system: MALME-3M melanoma
# MCF7 breast = system: MCF7 breast
# MDA-MB-231 breast = system: MDA-MB-231 breast
# MDA-MB-435 = system: MDA-MB-435
# MDA-MB-468 breast = system: MDA-MB-468 breast
# MOLT-4 leukemia = system: MOLT-4 leukemia
# NCI-H226 lung = system: NCI-H226 lung
# NCI-H23 lung = system: NCI-H23 lung
# NCI-H460 lung = system: NCI-H460 lung
# NCI-H522 lung = system: NCI-H522 lung
# NCI/ADR-RES ovarian = system: NCI/ADR-RES ovarian
# OVCAR-3 ovarian = system: OVCAR-3 ovarian
# OVCAR-4 ovarian = system: OVCAR-4 ovarian
# OVCAR-5 ovarian = system: OVCAR-5 ovarian
# OVCAR-8 ovarian = system: OVCAR-8 ovarian
# PC-3 prostate = system: PC-3 prostate
# RPMI-8226 leukemia = system: RPMI-8226 leukemia
# RXF 393 renal = system: RXF 393 renal
# SF-268 CNS = system: SF-268 CNS
# SF-295 CNS = system: SF-295 CNS
# SF-539 CNS = system: SF-539 CNS
# SK-MEL-2 melanoma = system: SK-MEL-2 melanoma
# SK-MEL-28 melanoma = system: SK-MEL-28 melanoma
# SK-MEL-5 melanoma = system: SK-MEL-5 melanoma
# SK-OV-3 ovarian = system: SK-OV-3 ovarian
# SN12C renal = system: SN12C renal
# SNB-19 CNS = system: SNB-19 CNS
# SNB-75 CNS = system: SNB-75 CNS
# SR leukemia = system: SR leukemia
# SW-620 colon = system: SW-620 colon
# T-47D breast = system: T-47D breast
# TK-10 renal = system: TK-10 renal
# U251 CNS = system: U251 CNS
# UACC-257 melanoma = system: UACC-257 melanoma
# UACC-62 melanoma = system: UACC-62 melanoma
# UO-31 renal = system: UO-31 renal
smiles,measurement,setting,value
NS(=O)(=O)c1ccc(N=Nc2c(O)n(CC(=O)Nc3ccccc3Cl)c3ccccc23)cc1,GI50,786-0 renal,3.26 µM
same,TGI,786-0 renal,12 µM
same,GI50,A498 renal,3.64 µM
same,TGI,A498 renal,16 µM
same,GI50,A549 NSCLC,2.91 µM
same,TGI,A549 NSCLC,10.3 µM
same,GI50,ACHN renal,2.21 µM
same,TGI,ACHN renal,6.89 µM
same,GI50,BT-549 breast,2.26 µM
same,TGI,BT-549 breast,6.79 µM
same,GI50,CAKI-1 renal,1.89 µM
same,TGI,CAKI-1 renal,8.37 µM
same,GI50,CCRF-CEM leukemia,3.58 µM
same,TGI,CCRF-CEM leukemia,23.2 µM
same,GI50,COLO 205 colon,2.05 µM
same,TGI,COLO 205 colon,4.14 µM
same,GI50,DU-145 prostate,5.34 µM
same,TGI,DU-145 prostate,23.1 µM
same,GI50,EKVX NSCLC,4.09 µM
same,TGI,EKVX NSCLC,36.1 µM
same,GI50,HCC-2998 colon,2.38 µM
same,TGI,HCC-2998 colon,6.35 µM
same,GI50,HCT-116 colon,2.94 µM
same,TGI,HCT-116 colon,12.4 µM
same,GI50,HCT-15 colon,3 µM
same,TGI,HCT-15 colon,15.4 µM
same,GI50,HL-60(TB) leukemia,2.38 µM
same,TGI,HL-60(TB) leukemia,7.68 µM
same,GI50,HOP-62 NSCLC,2.75 µM
same,TGI,HOP-62 NSCLC,12.7 µM
same,GI50,HOP-92 NSCLC,2.15 µM
same,TGI,HOP-92 NSCLC,6.45 µM
same,GI50,HS 578T breast,3.23 µM
same,TGI,HS 578T breast,> 100 µM
same,GI50,HT29 colon,2.04 µM
same,TGI,HT29 colon,4.11 µM
same,GI50,IGROV1 ovarian,4.59 µM
same,TGI,IGROV1 ovarian,19.1 µM
same,GI50,K-562 leukemia,3.66 µM
same,TGI,K-562 leukemia,> 100 µM
same,GI50,KM12 colon,2.93 µM
same,TGI,KM12 colon,12 µM
same,GI50,LOX IMVI melanoma,3.28 µM
same,TGI,LOX IMVI melanoma,15.1 µM
same,GI50,M14 melanoma,3.33 µM
same,TGI,M14 melanoma,30.5 µM
same,GI50,MALME-3M melanoma,1.89 µM
same,TGI,MALME-3M melanoma,6.91 µM
same,GI50,MCF7 breast,1.94 µM
same,TGI,MCF7 breast,4.63 µM
same,GI50,MDA-MB-231 breast,3.34 µM
same,TGI,MDA-MB-231 breast,16 µM
same,GI50,MDA-MB-435,2.61 µM
same,TGI,MDA-MB-435,19.4 µM
same,GI50,MDA-MB-468 breast,1.81 µM
same,TGI,MDA-MB-468 breast,3.8 µM
same,GI50,MOLT-4 leukemia,3.19 µM
same,TGI,MOLT-4 leukemia,31.8 µM
same,GI50,NCI-H226 lung,2.5 µM
same,TGI,NCI-H226 lung,8.45 µM
same,GI50,NCI-H23 lung,3.19 µM
same,TGI,NCI-H23 lung,12.2 µM
same,GI50,NCI-H460 lung,3.1 µM
same,TGI,NCI-H460 lung,10.8 µM
same,GI50,NCI-H522 lung,2.78 µM
same,TGI,NCI-H522 lung,15.3 µM
same,GI50,NCI/ADR-RES ovarian,3.93 µM
same,TGI,NCI/ADR-RES ovarian,50.3 µM
same,GI50,OVCAR-3 ovarian,2.56 µM
same,TGI,OVCAR-3 ovarian,11.5 µM
same,GI50,OVCAR-4 ovarian,4.57 µM
same,TGI,OVCAR-4 ovarian,55.5 µM
same,GI50,OVCAR-5 ovarian,4.3 µM
same,TGI,OVCAR-5 ovarian,22.7 µM
same,GI50,OVCAR-8 ovarian,2.49 µM
same,TGI,OVCAR-8 ovarian,6.85 µM
same,GI50,PC-3 prostate,2.76 µM
same,TGI,PC-3 prostate,29.2 µM
same,GI50,RPMI-8226 leukemia,3.06 µM
same,TGI,RPMI-8226 leukemia,> 100 µM
same,GI50,RXF 393 renal,2.14 µM
same,TGI,RXF 393 renal,5.74 µM
same,GI50,SF-268 CNS,3.19 µM
same,TGI,SF-268 CNS,21.9 µM
same,GI50,SF-295 CNS,1.67 µM
same,TGI,SF-295 CNS,3.58 µM
same,GI50,SF-539 CNS,1.7 µM
same,TGI,SF-539 CNS,4.17 µM
same,GI50,SK-MEL-2 melanoma,3.95 µM
same,TGI,SK-MEL-2 melanoma,21.1 µM
same,GI50,SK-MEL-28 melanoma,2.96 µM
same,TGI,SK-MEL-28 melanoma,12.5 µM
same,GI50,SK-MEL-5 melanoma,2.12 µM
same,TGI,SK-MEL-5 melanoma,5.11 µM
same,GI50,SK-OV-3 ovarian,2.54 µM
same,TGI,SK-OV-3 ovarian,8.74 µM
same,GI50,SN12C renal,3.03 µM
same,TGI,SN12C renal,16.1 µM
same,GI50,SNB-19 CNS,4.74 µM
same,TGI,SNB-19 CNS,24.7 µM
same,GI50,SNB-75 CNS,2.01 µM
same,TGI,SNB-75 CNS,14.4 µM
same,GI50,SR leukemia,2.82 µM
same,TGI,SR leukemia,> 100 µM
same,GI50,SW-620 colon,2.93 µM
same,TGI,SW-620 colon,10.9 µM
same,GI50,T-47D breast,2.95 µM
same,TGI,T-47D breast,34.5 µM
same,GI50,TK-10 renal,10.8 µM
same,TGI,TK-10 renal,34.5 µM
same,GI50,U251 CNS,2.81 µM
same,TGI,U251 CNS,9.62 µM
same,GI50,UACC-257 melanoma,2.89 µM
same,TGI,UACC-257 melanoma,9.83 µM
same,GI50,UACC-62 melanoma,1.81 µM
same,TGI,UACC-62 melanoma,5.88 µM
same,GI50,UO-31 renal,1.72 µM
same,TGI,UO-31 renal,6.81 µM
